The values that follow come from US4070484A, “Antiallergic composition containing aromatic carboxylic amide derivatives and method of using the same” (Kissei Pharmaceutical Co., Ltd., priority 1973, dated 1978).

Data set [1] deals with homologous passive cutaneous anaphylaxis (antigen-antibody reaction). The experiment in a line: Homologous Passive Cutaneous Anaphylaxis in Rats. The format is in vivo, rat (Wistar male). The conditions noted are these: 200 mg/kg orally 2 hours prior to the injection of antigen; for inhibition at 200 mg/kg: Rattus norvegicus, po. As to the method:
Wistar male rats weighing 120-150 g were used in this experiment. […]. Normal rats were sensitized passively with dilution of the antibody by means of intradermal injection. After 48 hours of the sensitization, the mixture of antigen (EA) and evens blue was injected intravenously. The animals were killed by a blow on the head 30 minutes after the injection, and then the blue spot resulted from the antigen-antibody reaction was measured photometrically.
A given test compound dissolved in 1 % NaHCO3 solution was administrated in a dose of 200 mg/kg orally 2 hours prior to the injection of antigen, while only the vehicle solution was administered to the control group.
The efficacy of the test compounds to inhibit the homologous passive cutaneous anaphlaxis was compared with the value (%) calculated using the following formula: [formula] wherein A stands for the amount of leaked dye in control group and B for the amount of leaked dye in the group administered with a given test compound.

The subject of data set [2] is mast cells. To be noted: known art; cited from earlier work.
The subject of data set [3] is sensitized mesenteric mast cells. The experiment in a line: Effect on the Disruption of the Sensitized Mast Cells. To be noted: 10^-5 g/ml, 5 minutes prior to the treatment of antigen. The data set is classed as cell-based, rat. As to the method:
Mesenteric mast cells isolated from normal rats were sensitized passively by means of incubation with rat reaginic antibody at 37° C. After termination of the incubation, the specific antigen (DNP-Ascaris) was added to the incubation medium, then these mast cells in mesentery were fixed with formalin and stained with 0.1 % toluidine blue (in acetic acid buffer; pH: 4.6). The number of mast cells disrupted as a consequence of the antigen-antibody reaction were counted under a microscope. The number of the mast cells disrupted were also counted without the addition of the specific antigen.
A given test compound dissolved in 1 % NaHCO3 solution was added to the incubation medium at a concentration of 10^-5 g/ml, 5 minutes prior to the treatment of antigen, while only the vehicle was added to the control group.
The efficacy of the test compounds to inhibit the mast cell disruption was compared with the value (%) calculated using the following formula: [formula] wherein P stands for the percentage of disrupted mast cells in the control group, Q for the percentage of mast cells disrupted spontaneously and R for the percentage of disrupted mast cells in the group treated with a given test compound.

The nature of data set [4]: Acute Toxicity (LD50) in mice. The format is in vivo. To be noted: mouse, in vivo, po, mortality on the 8th day. As to the method:
The median lethal dose (LD50) of the new aromatic carboxylic acid amide derivatives of this invention were determined in dd-stain male and female mice (6 weeks old) by oral administration and in Wistar strain male and female rats (7 weeks old) by oral and intraperitoneal administration. Each animal selected for the experiment was maintained in an air conditioned room at a temperature of 22° ± 1° C and a relative humidity of 55 ± 5% during the full course of the experiment. All animals were fed compressed pellets (CE-2 type produced by Japan CLEA Co.) and water was available ad libitum by bottle. Five groups of ten animals for each administration route were used.
Since these compounds were isoluble in water, they were suspended in a 0.5% aqueous solution of carboxymethylcellulose at each dosage level. The administrative volume of each agent to 10 g body weight mouse was 0.2 ml for oral administration, while that to 100g body weight of rat was 0.5 ml for intraperitoneal and oral administrations.
The LD50 values were calculated from the mortality on the 8th day by the Litchfield-Wilcoxon's method.

Data set [5] relates to antiallergic action, oral administration to mammalia. The experiment in a line: Antiallergic action (general statements). The data set is classed as in vivo. To be noted: general statement.

As usually defined, the inhibition is the change of the read-out against control, counted positive when it falls. Higher therefore signals strong suppression. For the molecule `O=C(C=Cc1ccccc1)Nc1cccc(C(=O)O)c1` [3-(cinnamoylamino)-benzoic acid, reference compound], in data set [1], the inhibition at 200 mg/kg was 10%.

With `O=C(C=Cc1ccccc1)Nc1ccc(C(=O)O)cc1` [4-(cinnamoylamino)-benzoic acid, reference compound], in data set [1], 200 mg/kg produced 7% inhibition.

Molecule `OCC(O)COc1ccc(Cl)cc1` (stereo not drawn) [Chlorphenesin, reference compound] had an inhibition at 200 mg/kg in data set [1] of 36.7%. For the same molecule, in data set [2], the “inhibition of mast cell disruption (in words)” value is “inhibitor of mast cell disruption”.

For `COc1ccc(C(C)=CC(=O)Nc2ccccc2C(=O)O)cc1OC` [N-(3',4'-dimethoxy-β-methylcinnamoyl)-anthranilic acid], in data set [1], the inhibition at 200 mg/kg was 66.2%. The “Inhibition percentage (mast cell disruption)” value (from here on “Inhibition percentage”) in data set [3] came out at 45%.

As usually defined, the LD50 is the dose expected to kill half of the subjects tested. Low readings indicate greater toxicity, high ones lower toxicity. As to `O=C(C=Cc1cccc(Cl)c1)Nc1ccccc1C(=O)O` [N-(3'-chlorocinnamoyl)-anthranilic acid], the 50% lethal dose (LD50) at 192 h in data set [4] was determined as 700 mg/kg.

As for `COc1cc(C=CC(=O)Nc2ccccc2C(=O)O)ccc1OCC(=O)O` [N-(3'-methoxy-4'-carboxylmethoxycinnamoyl)-anthranilic acid, reference compound], in data set [1], the inhibition at 200 mg/kg was 0%.

On to `COc1cc(C=CC(=O)Nc2ccccc2C(=O)O)ccc1OCC(O)CO` (stereo not drawn) [N-[3'-methoxy-4'-(2,3-dihydroxypropoxy)-cinnamoyl]-anthranilic acid, reference compound], for which the inhibition at 200 mg/kg in data set [1] is 9%.

Take `O=C(C=Cc1ccccc1)Nc1ccccc1C(=O)O` [N-cinnamoyl-anthranilic acid, reference compound]: the inhibition at 200 mg/kg in data set [1] was 16.7%.

In turn, `O=C(C=Cc1ccc(O)cc1)Nc1ccccc1C(=O)O` [compound 1, N-(4'-hydroxycinnamoyl)-anthranilic acid] showed an inhibition at 200 mg/kg in data set [1] of 36.7%.

Regarding `COc1cccc(C=CC(=O)Nc2ccc(C(=O)O)cc2)c1O` [compound 6, 4-(2'-hydroxy-3'-methoxycinnamoylamino)-benzoic acid], in data set [1], the inhibition at 200 mg/kg amounted to 33.5%.

Molecule `COc1cccc(C=CC(=O)Nc2cccc(C(=O)O)c2)c1` [compound 15, 3-(3'-methoxycinnamoylamino)-benzoic acid] came in with an inhibition at 200 mg/kg in data set [1] of 45%. For the same molecule, the “Inhibition percentage” value in data set [3] is given as 18%.

In data set [1], `O=C(C=Cc1ccc(Cl)cc1)Nc1ccccc1C(=O)O` [compound 20, N-(4'-chlorocinnamoyl)-anthranilic acid] had an inhibition at 200 mg/kg of 69.4%. The same molecule came in with an LD50 at 192 h in data set [4] of 551 mg/kg.

In turn, `O=C(C=Cc1ccccc1Cl)Nc1ccccc1C(=O)O` [compound 22, N-(2'-chlorocinnamoyl)-anthranilic acid] gave an inhibition at 200 mg/kg in data set [1] of 60.2%. This molecule showed an LD50 at 192 h in data set [4] of 343 mg/kg.

On to `O=C(C=Cc1ccc(F)cc1)Nc1ccccc1C(=O)O` [compound 28, N-(4'-fluorocinnamoyl)-anthranilic acid], for which, in data set [4], the LD50 at 192 h was found to be 481 mg/kg.

Regarding `O=C(C=Cc1cccc(F)c1)Nc1ccccc1C(=O)O` [compound 29, N-(3'-fluorocinnamoyl)-anthranilic acid], in data set [1], the inhibition at 200 mg/kg turned out to be 47.5%. For the same molecule, in data set [4], the LD50 at 192 h was 551 mg/kg.

In data set [4], `O=C(C=Cc1ccccc1F)Nc1ccccc1C(=O)O` [compound 30, N-(2'-fluorocinnamoyl)-anthranilic acid] had an LD50 at 192 h of 321 mg/kg.

With `COc1cccc(C=CC(=O)Nc2ccccc2C(=O)O)c1OC` [compound 31, N-(2',3'-dimethoxycinnamoyl)-anthranilic acid], the inhibition at 200 mg/kg in data set [1] turned out to be 56.8%.

As to `Cc1ccc(C=CC(=O)Nc2ccccc2C(=O)O)cc1` [compound 42, N-(4'-methylcinnamoyl)-anthracilic acid], the inhibition at 200 mg/kg in data set [1] turned out to be 54%.

The molecule `COc1cc(OC)c(OC)cc1C=CC(=O)Nc1ccccc1C(=O)O` [compound 52, N-(2',4',5'-trimethoxycinnamoyl)-anthranilic acid] had an inhibition at 200 mg/kg in data set [1] of 56.8%.

Turning to `CCCOc1ccc(C=CC(=O)Nc2ccccc2C(=O)O)cc1OC` [compound 54, N-(3'-methoxy-4'-n-propoxycinnamoyl)-anthranilic acid], in data set [1], testing at 200 mg/kg gave an inhibition of 52.2%. For the same molecule, the “Inhibition percentage” value in data set [3] is given as 37%.

For the molecule `COc1cc(C=CC(=O)Nc2ccccc2C(=O)O)ccc1OC(C)C` [compound 56, N-(3'-methoxy-4'-isopropoxycinnamoyl)-anthranilic acid], the inhibition at 200 mg/kg in data set [1] was 47.1%.

As to `COc1cccc(C=CC(=O)Nc2cccc(C(=O)O)c2)c1OC` [compound 60, 3-(2',3'-dimethoxycinnamoylamino)-benzoic acid], in data set [1], at 200 mg/kg the inhibition was 41.1%.

For `COc1ccc(CCC(=O)Nc2ccccc2C(=O)O)cc1OC` [compound 67, N-(3',4'-dimethoxylhydrocinnamoyl)-anthranilic acid], in data set [1], the inhibition at 200 mg/kg stood at 55.4%.

“Methylenedioxycinnamoylaminobenzoic acid”: the “antiallergic action / pharmacological activity (in words)” value in data set [5] is “strong antiallergic action”.

Regarding N-(4'-bromocinnamoylamino)-benzoic acid, the “Inhibition (%)” value in data set [1] came to 32.3%.

As to “cinnamoylaminobenzoic acid [reference compound]”, the “antiallergic action / pharmacological activity (in words)” value in data set [5] is reported as “only very weak antiallergic effect”.
